Tests used:
[1] = test system: ornithine decarboxylase (ODC); settings: literature statement in words; 12-O-tetradecanoylphorbol-13-acetate (TPA) as inducer; cited from earlier work
[2] = test system: ornithine decarboxylase (ODC); assay: ODC assay: inhibition of TPA induction of ornithine decarboxylase; assay type: biochemical; settings: concentration of the test compound which causes 80% inhibition in the ODC assay; TPA-induced ODC
Excerpt: The retinoic acid-like activity of these compounds is confirmed through the classic measure of retinoic acid activity involving the effects of retinoic acid on ornithine decarboxylase. The original work on the correlation between retinoic acid and decrease in cell proliferation was done by Verma & Boutwell, Cancer Research, 1977, 37, 2196-2201. That reference discloses that ornithine decarboxylase (ODC) activity increased precedent to polyamine biosynthesis. It has been established elsewhere that increases in polyamine synthesis can be correlated or associated with cellular proliferation. Thus, if ODC activity could be inhibited, cell hyperproliferation could be modulated. Although all cases for ODC activity increases are unknown, it is known that 12-O-tetradecanoylphorbol-13-acetate (TPA) induces ODC activity. […] Activity of exemplary compounds of the present invention in the above-described ODC assay is disclosed in Table 2 which provides the IC80 concentration for the respective exemplary compound. ("IC80 " is that concentration of the test compound which causes 80% inhibition in the ODC assay)

SMILES	inhibition of TPA induction of ODC activity [1]	IC80 conc [2]
CC1=C(/C=C/C(C)=C/C=C/C(C)=C/C(=O)O)C(C)(C)CCC1 [Retinoic acid]	inhibits this induction of ODC activity by TPA	–
CCOC(=O)c1ccc(C=Nc2cc3c(cc2C)C(C)(C)CCC3(C)C)cc1 [Compound 6, N-(5,6,7,8-Tetrahydro-3,5,5,8,8-pentamethyl)-2-naphthalenyl 4-ethoxycarbonyl benzaldimine]	–	293 nmols
CCOC(=O)c1ccc(C(C)=Nc2ccc3c(c2)C(C)(C)CCC3(C)C)cc1 [Compound 5, N-(5,6,7,8-Tetrahydro-5,5,8,8-tetramethyl)-2-naphthalenyl 4-ethoxycarbonyl acetophenone imine]	–	5.5 nmols
COC(=O)c1ccc(C=Nc2ccc3c(c2)C(C)(C)CCC3(C)C)cc1 [Compound 1]	–	14.5 nmols
CCOC(=O)c1ccc(C=Nc2ccc3c(c2)C(C)(C)CCC3(C)C)nc1 [Compound 7, Ethyl 6-(N-5,6,7,8-tetrahydro-5,5,8,8-tetramethyl-2-naphthalenyl) 3-ethoxycarbonyl-pyridine-6-carboxaldehyde imine]	–	> 30 nmols
CCOC(=O)c1ccc(N=Cc2ccc3c(c2)C(C)(C)CC(C)(C)O3)cc1 [Compound 10, N-(4'-Ethoxycarbonyl) phenyl 2,2,4,4-tetramethyl-chroman-6-carboxaldehyde imine]	–	44.0 nmols
CCOC(=O)c1ccc(C=Nc2ccc3c(c2)C(C)(C)CCC3(C)C)cc1 [Compound 4, N-(5,6,7,8-Tetrahydro-5,5,8,8-tetramethyl)-2-naphthalenyl 4-ethoxycarbonyl benzaldimine]	–	2.5 nmols
CCOC(=O)c1ccc(N=Cc2ccc3c(c2)C(C)(C)CCC3(C)C)cc1 [Compound 9, N-(4'-Ethoxycarbonyl)phenyl 5,6,7,8-tetrahydro-5,5,8,8-tetramethyl,naphthalene-2-carboxaldehyde imine]	–	9.6 nmols
CCOC(=O)c1ccc(N=Cc2cc3c(cc2C)C(C)(C)CCC3(C)C)cc1 [Compound 11, N-(4'-Ethoxycarbonyl) phenyl-2-(5,6,7,8-tetrahydro-3,5,5,8,8-pentamethyl) naphthalene-2-carboxaldehyde imine]	–	3.5 nmols
